In PMC12442245, “Activity Analysis of the P2X Receptor Antagonist PPADS against Signal Transducer and Activator of Transcription Proteins” (Chembiochem, 2025):
Where “and” joins values, the source holds several entries; their conditions need not be identical. Identical values can stand only once.

Key:
Assay type in all cases: binding
STAT3 = STAT3 (Homo sapiens, UniProt P40763); experiment: CETSA, STAT3 in total cell lysates from NK-92 cells; set-up: the endogenous full‐length proteins (between 748 and 793 amino acids for STAT3/4/5a/5b); endogenous in cells; host or cells: NK-92 cells (DSMZ), whole-cell lysate; conditions: NK-92 cell lysates, 100 μM
STAT3, sequence (P40763 whole entry, species assumed, the tested form may be a part): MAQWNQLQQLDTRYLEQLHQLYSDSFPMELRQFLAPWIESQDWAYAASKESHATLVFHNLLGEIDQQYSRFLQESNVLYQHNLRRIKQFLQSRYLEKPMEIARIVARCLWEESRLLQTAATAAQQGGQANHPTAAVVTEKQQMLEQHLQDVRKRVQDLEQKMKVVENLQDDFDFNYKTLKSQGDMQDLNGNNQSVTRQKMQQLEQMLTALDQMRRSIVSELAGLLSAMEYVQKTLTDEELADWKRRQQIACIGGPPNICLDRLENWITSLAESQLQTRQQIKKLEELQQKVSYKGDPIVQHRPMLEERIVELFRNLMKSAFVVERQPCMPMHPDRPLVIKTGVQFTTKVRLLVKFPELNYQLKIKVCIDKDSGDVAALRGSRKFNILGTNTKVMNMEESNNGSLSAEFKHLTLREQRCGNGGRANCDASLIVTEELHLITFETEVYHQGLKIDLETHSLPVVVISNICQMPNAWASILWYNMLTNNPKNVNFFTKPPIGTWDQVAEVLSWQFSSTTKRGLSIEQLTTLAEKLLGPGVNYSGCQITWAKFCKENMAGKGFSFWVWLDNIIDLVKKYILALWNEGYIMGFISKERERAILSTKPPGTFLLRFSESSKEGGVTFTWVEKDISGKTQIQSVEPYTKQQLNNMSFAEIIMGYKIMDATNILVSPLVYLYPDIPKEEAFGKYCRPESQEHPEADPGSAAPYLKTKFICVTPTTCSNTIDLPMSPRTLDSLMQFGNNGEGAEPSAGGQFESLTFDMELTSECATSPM
Excerpt: STAT3 was again chosen as a specificity control for CETSA analysis, because it had already been used as control in HTRF assays (Figure 2B), and because we had previously developed CETSA for STAT3 in NK‐92 lysates.^[ [11] ^] […] The relatively low thermal shifts obtained even with the high‐affinity control peptides are consistent with the fact that the SH2 domain of STATs only comprises a small proportion (≈100 amino acids) of the endogenous full‐length proteins (between 748 and 793 amino acids for STAT3/4/5a/5b).^[ [25] ^] […] The CETSA experiments were carried out in cell lysates, not in living cells, to account for the putative inability of PPADS and iso‐PPADS to cross the cell membrane owing to their large number of negative charges. […]
(§1) CETSA experiments were performed based on the published protocol.[8] […] The soluble fractions were analyzed by Western blotting.
(§2) Treated lysates were separated by SDS-PAGE on a 10% gel and transferred to nitrocellulose membrane using a TransBlot semi-dry blotting protocol (Bio-Rad Laboratories). Proteins of interest were detected using monoclonal rabbit primary antibodies (Cell Signaling), anti-rabbit-HRP-secondary antibody (Dako) and Pierce ECL Plus chemiluminescence reagent (Thermo Fisher). Bands were visualized using an ImageQuant system (GE Healthcare) and quantitated with ImageJ software (NIH).[9]

[1] = tested on: total STAT5 (STAT5a and STAT5b); experiment: CETSA, total STAT5 in lysates from K562 cells; conditions: K562 cell lysates, 100 μM
Experimental: (§3) One method by which binding of small molecules to their expected targets in cell lysates can be inferred is the cellular thermal shift assay (CETSA).^[ [23], [24] ^] This assay is based on the observation that reversible protein binding by a small molecule typically stabilizes the bound protein against thermal denaturation. […]
K562 cells (DSMZ) were cultured […]
in RPMI 1640 medium containing 10% FBS, 2 mM L-glutamine and penicillin/streptomycin. For whole-cell lysates, cells were harvested by centrifugation, washed once with ice-cold PBS and resuspended at 3 x 10^6 cells per 100 µl in TBS supplemented with EDTA-free Halt Protease Inhibitor Cocktail (Fisher Scientific). Cells were lysed using three freeze-thaw cycles using liquid nitrogen and a room-temperature water bath. […]
as §1, §2

STAT4 = target: T1, STAT4 (Homo sapiens, UniProt Q14765); experiment: CETSA, STAT4 in total cell lysates from NK-92 cells; conditions: NK-92 cell lysates, 100 μM compound
T1 sequence (Q14765 1-748): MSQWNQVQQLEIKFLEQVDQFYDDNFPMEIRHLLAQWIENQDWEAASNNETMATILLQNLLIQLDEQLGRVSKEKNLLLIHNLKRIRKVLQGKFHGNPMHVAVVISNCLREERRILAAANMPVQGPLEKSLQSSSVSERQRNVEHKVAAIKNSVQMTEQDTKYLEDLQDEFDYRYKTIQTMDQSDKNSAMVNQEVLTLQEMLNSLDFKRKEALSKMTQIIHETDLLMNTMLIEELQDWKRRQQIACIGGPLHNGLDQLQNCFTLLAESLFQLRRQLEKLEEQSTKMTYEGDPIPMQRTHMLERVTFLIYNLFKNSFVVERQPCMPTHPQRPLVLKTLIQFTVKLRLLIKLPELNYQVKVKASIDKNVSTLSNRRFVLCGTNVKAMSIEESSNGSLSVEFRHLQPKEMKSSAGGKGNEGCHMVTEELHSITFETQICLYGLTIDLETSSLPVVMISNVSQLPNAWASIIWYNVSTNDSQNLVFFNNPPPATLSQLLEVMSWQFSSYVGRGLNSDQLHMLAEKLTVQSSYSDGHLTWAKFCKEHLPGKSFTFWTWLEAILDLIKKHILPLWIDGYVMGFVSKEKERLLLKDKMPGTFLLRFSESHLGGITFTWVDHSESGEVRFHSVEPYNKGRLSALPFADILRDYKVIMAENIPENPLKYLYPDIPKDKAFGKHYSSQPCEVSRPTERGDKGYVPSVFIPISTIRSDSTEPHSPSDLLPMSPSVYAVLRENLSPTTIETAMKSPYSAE
Experimental: as §3
NK-92 cells (DSMZ) were cultured in α-MEM containing 12.5% fetal bovine serum, 12.5% horse serum, 2 mM L-glutamine, penicillin/streptomycin antibiotics and 50 U/ml human recombinant IL-2 (all reagents from Gibco at Thermo Fisher). […]
whole-cell lysates, cells were harvested by centrifugation, washed once with ice-cold PBS and resuspended at 3 x 10^6 cells per 100 µl in TBS supplemented with EDTA-free Halt Protease Inhibitor Cocktail (Fisher Scientific). […]
as §1, §2

## Cc1nc(/N=N/c2ccc(S(=O)(=O)O)cc2S(=O)(=O)O)c(COP(=O)(O)O)c(C=O)c1O [PPADS, pyridoxalphosphate‐6‐azophenyl‐2',4'‐disulfonic acid]
STAT3
  increase of the aggregation temperature of STAT3 (ΔT agg): 0.57 °C
STAT3; DMSO control 51.47 °C
  aggregation temperature of STAT3 (T agg): 52.04 °C
[1]
  ΔT agg of total STAT5: 2.7 °C
[1]; DMSO control 49.0 °C
  aggregation temperature of total STAT5 (T agg): 51.7 °C
STAT4
  increase of the aggregation temperature of STAT4 (ΔT agg): 1.1 °C
STAT4; DMSO control 48.9 ± 0.4 °C
  aggregation temperature of STAT4 (T agg): 50.0 ± 0.4 °C and 50.0 °C
